Columns and labels:
[1] = Growth inhibition of human HT-29 cells after 48 hrs by MTT assay; assay type: functional, cell-based; details: HT-29, 48 h
[2] = Growth inhibition of human MDA-MB-231 cells after 48 hrs by MTT assay; assay type: functional, cell-based; details: MDA-MB-231, 48 h
Mus musculus = assay: Toxicity in Kunming mouse implanted with mouse 4T1 cells assessed as body weight loss at 1 mg/kg, ip administered once in 4 days for 14 days measured during compound dosing; assay type: organism-based; details: in vivo

Row | SMILES | IC50 [1] [µM] | IC50 [2] [µM] | Activity (Mus musculus)
1 | COc1cc(/C=C/c2ccc(NC(=O)/C=C/c3ccc([N+](=O)[O-])cc3)cc2)cc(OC)c1 | 10.7 | 11.7 | 
2 | COc1cc(/C=C/c2ccc(OC(=O)/C=C/c3ccc([N+](=O)[O-])cc3)cc2)cc(OC)c1 | > 20 | 18 | 
3 | COc1cc(/C=C/c2ccc(OC(=O)/C=C/c3ccc(C(F)(F)F)cc3)cc2)cc(OC)c1 | 9.09 | 6.91 | 
4 | COc1cc(/C=C/c2ccc(NC(=O)/C=C/c3ccccc3)cc2)cc(OC)c1 | 1.75 | 2.01 | 
5 | COc1cc(/C=C/c2ccc(NC(=O)/C=C/c3cc(OC)c(O)c(OC)c3)cc2)cc(OC)c1 | 3.08 | 7.13 | 
6 | COc1cccc2c1C(=O)c1c(O)c3c(c(O)c1C2=O)C[C@@](O)(C(=O)CO)C[C@@H]3O[C@H]1C[C@H](N)[C@H](O)[C@H](C)O1 [DOXORUBICIN] |  |  | Toxic
7 | COc1cc(/C=C/c2ccc(NC(=O)/C=C/c3ccc(C(F)(F)F)cc3)cc2)cc(OC)c1 | 1.78 | 3.52 | 
8 | COc1cc(/C=C/c2ccc(NC(=O)/C=C/c3ccc(F)cc3)cc2)cc(OC)c1 | 11.6 | 9.39 | 
9 | COc1cc(/C=C/c2ccc(OC(=O)/C=C/c3ccc(F)cc3)cc2)cc(OC)c1 | 7.77 | 6.21 | 
10 | COc1cc(/C=C/c2ccc(NC(=O)/C=C/c3ccc(F)cc3F)cc2)cc(OC)c1 | 18.1 | > 20 | 
11 | COc1cc(/C=C/c2ccc(NC(=O)/C=C/c3ccccn3)cc2)cc(OC)c1 | 6.12 | 3.4 | 
12 | COc1cc(/C=C/c2ccc(NC(=O)/C=C/c3cccc(F)c3)cc2)cc(OC)c1 | 16.8 | 17.3 | 

From ChEMBL document CHEMBL3875178, “Discovery of oral-available resveratrol-caffeic acid based hybrids inhibiting acetylated and phosphorylated STAT3 protein” (Eur J Med Chem, 2016)
